± gives the expanded uncertainty stated by the source.
Experiment: xn = mol fraction of the nth substance listed
Details: Liquid, Pycnometric method

CCCCBr [1-bromobutane] + O=C=O
mass density (316.1 K, 8510 kPa, x1 = 0.0245): 593 ± 4 kg/m3
mass density (316.1 K, 8560 kPa, x1 = 0.0245): 604 ± 4 kg/m3
mass density (316.1 K, 8620 kPa, x1 = 0.0245): 615 ± 4 kg/m3
mass density (316.1 K, 8690 kPa, x1 = 0.0245): 627 ± 4 kg/m3
mass density (316.1 K, 8780 kPa, x1 = 0.0245): 639 ± 4 kg/m3
mass density (316.1 K, 8880 kPa, x1 = 0.0245): 652 ± 4 kg/m3
mass density (316.1 K, 9000 kPa, x1 = 0.0245): 665 ± 4 kg/m3
mass density (316.1 K, 9150 kPa, x1 = 0.0245): 683 ± 4 kg/m3
mass density (316.1 K, 9340 kPa, x1 = 0.0245): 694 ± 4 kg/m3
mass density (316.1 K, 9560 kPa, x1 = 0.0245): 709 ± 4 kg/m3
mass density (316.1 K, 9850 kPa, x1 = 0.0245): 725 ± 4 kg/m3
mass density (316.1 K, 10200 kPa, x1 = 0.0245): 741 ± 4 kg/m3
mass density (316.1 K, 10240 kPa, x1 = 0.0245): 743 ± 4 kg/m3
mass density (316.1 K, 10290 kPa, x1 = 0.0245): 746 ± 4 kg/m3
mass density (316.1 K, 10350 kPa, x1 = 0.0245): 750 ± 4 kg/m3
mass density (317.9 K, 7540 kPa, x1 = 0.1495): 964 ± 4 kg/m3
mass density (317.9 K, 7770 kPa, x1 = 0.1495): 967 ± 4 kg/m3
mass density (317.9 K, 7950 kPa, x1 = 0.0989): 850 ± 4 kg/m3
mass density (317.9 K, 7990 kPa, x1 = 0.1495): 970 ± 4 kg/m3
mass density (317.9 K, 8090 kPa, x1 = 0.0989): 853 ± 4 kg/m3
mass density (317.9 K, 8230 kPa, x1 = 0.0683): 777 ± 4 kg/m3
mass density (317.9 K, 8230 kPa, x1 = 0.1495): 974 ± 4 kg/m3
mass density (317.9 K, 8330 kPa, x1 = 0.0461): 703 ± 4 kg/m3
mass density (317.9 K, 8340 kPa, x1 = 0.0683): 780 ± 4 kg/m3
mass density (317.9 K, 8370 kPa, x1 = 0.0461): 705 ± 4 kg/m3
mass density (317.9 K, 8370 kPa, x1 = 0.0989): 859 ± 4 kg/m3
mass density (317.9 K, 8450 kPa, x1 = 0.0245): 491 ± 4 kg/m3
mass density (317.9 K, 8450 kPa, x1 = 0.0461): 712 ± 4 kg/m3
mass density (317.9 K, 8450 kPa, x1 = 0.1495): 977 ± 4 kg/m3
mass density (317.9 K, 8460 kPa, x1 = 0.0245): 493 ± 4 kg/m3
mass density (317.9 K, 8480 kPa, x1 = 0.0245): 499 ± 4 kg/m3
mass density (317.9 K, 8490 kPa, x1 = 0.0683): 786 ± 4 kg/m3
mass density (317.9 K, 8500 kPa, x1 = 0.0245): 506 ± 4 kg/m3
mass density (317.9 K, 8530 kPa, x1 = 0.0245): 512 ± 4 kg/m3
mass density (317.9 K, 8550 kPa, x1 = 0.0245): 518 ± 4 kg/m3
mass density (317.9 K, 8550 kPa, x1 = 0.0461): 721 ± 4 kg/m3
mass density (317.9 K, 8570 kPa, x1 = 0.0245): 525 ± 4 kg/m3
mass density (317.9 K, 8600 kPa, x1 = 0.0245): 532 ± 4 kg/m3
mass density (317.9 K, 8620 kPa, x1 = 0.0245): 540 ± 4 kg/m3
mass density (317.9 K, 8630 kPa, x1 = 0.0683): 791 ± 4 kg/m3
mass density (317.9 K, 8650 kPa, x1 = 0.0245): 547 ± 4 kg/m3
mass density (317.9 K, 8650 kPa, x1 = 0.0989): 865 ± 4 kg/m3
mass density (317.9 K, 8660 kPa, x1 = 0.1495): 980 ± 4 kg/m3
mass density (317.9 K, 8680 kPa, x1 = 0.0461): 731 ± 4 kg/m3
mass density (317.9 K, 8690 kPa, x1 = 0.0245): 555 ± 4 kg/m3
mass density (317.9 K, 8720 kPa, x1 = 0.0245): 563 ± 4 kg/m3
mass density (317.9 K, 8770 kPa, x1 = 0.0245): 571 ± 4 kg/m3
mass density (317.9 K, 8790 kPa, x1 = 0.0683): 797 ± 4 kg/m3
mass density (317.9 K, 8800 kPa, x1 = 0.0245): 579 ± 4 kg/m3
mass density (317.9 K, 8820 kPa, x1 = 0.0245): 583 ± 4 kg/m3
mass density (317.9 K, 8840 kPa, x1 = 0.0245): 588 ± 4 kg/m3
mass density (317.9 K, 8840 kPa, x1 = 0.0461): 741 ± 4 kg/m3
mass density (317.9 K, 8870 kPa, x1 = 0.0245): 589 ± 4 kg/m3
mass density (317.9 K, 8890 kPa, x1 = 0.0245): 597 ± 4 kg/m3
mass density (317.9 K, 8920 kPa, x1 = 0.0245): 601 ± 4 kg/m3
mass density (317.9 K, 8940 kPa, x1 = 0.0683): 802 ± 4 kg/m3
mass density (317.9 K, 8950 kPa, x1 = 0.0989): 871 ± 4 kg/m3
mass density (317.9 K, 8960 kPa, x1 = 0.0245): 608 ± 4 kg/m3
mass density (317.9 K, 8960 kPa, x1 = 0.0461): 748 ± 4 kg/m3
mass density (317.9 K, 8990 kPa, x1 = 0.1495): 984 ± 4 kg/m3
mass density (317.9 K, 9100 kPa, x1 = 0.0461): 756 ± 4 kg/m3
mass density (317.9 K, 9130 kPa, x1 = 0.0683): 808 ± 4 kg/m3
mass density (317.9 K, 9250 kPa, x1 = 0.1495): 987 ± 4 kg/m3
mass density (317.9 K, 9270 kPa, x1 = 0.0461): 764 ± 4 kg/m3
mass density (317.9 K, 9300 kPa, x1 = 0.0989): 877 ± 4 kg/m3
mass density (317.9 K, 9330 kPa, x1 = 0.0683): 814 ± 4 kg/m3
mass density (317.9 K, 9530 kPa, x1 = 0.0461): 774 ± 4 kg/m3
mass density (317.9 K, 9540 kPa, x1 = 0.0683): 820 ± 4 kg/m3
mass density (317.9 K, 9580 kPa, x1 = 0.1495): 990 ± 4 kg/m3
mass density (317.9 K, 9670 kPa, x1 = 0.0989): 884 ± 4 kg/m3
mass density (317.9 K, 9770 kPa, x1 = 0.0683): 826 ± 4 kg/m3
mass density (317.9 K, 9810 kPa, x1 = 0.0461): 785 ± 4 kg/m3
mass density (317.9 K, 9860 kPa, x1 = 0.1495): 993 ± 4 kg/m3
mass density (317.9 K, 10030 kPa, x1 = 0.0683): 832 ± 4 kg/m3
mass density (317.9 K, 10050 kPa, x1 = 0.0989): 890 ± 4 kg/m3
mass density (317.9 K, 10160 kPa, x1 = 0.0461): 796 ± 4 kg/m3
mass density (317.9 K, 10240 kPa, x1 = 0.1495): 997 ± 4 kg/m3
mass density (317.9 K, 10310 kPa, x1 = 0.0683): 838 ± 4 kg/m3
mass density (317.9 K, 10500 kPa, x1 = 0.0989): 897 ± 4 kg/m3
mass density (317.9 K, 10560 kPa, x1 = 0.1495): 1000 ± 4 kg/m3
mass density (317.9 K, 10590 kPa, x1 = 0.0461): 809 ± 4 kg/m3
mass density (317.9 K, 10630 kPa, x1 = 0.0683): 845 ± 4 kg/m3
mass density (317.9 K, 10930 kPa, x1 = 0.1495): 1004 ± 4 kg/m3
mass density (317.9 K, 10940 kPa, x1 = 0.0683): 850 ± 4 kg/m3
mass density (317.9 K, 10950 kPa, x1 = 0.0989): 903 ± 4 kg/m3
mass density (317.9 K, 11060 kPa, x1 = 0.0461): 821 ± 4 kg/m3
mass density (317.9 K, 11270 kPa, x1 = 0.1495): 1007 ± 4 kg/m3
mass density (317.9 K, 11310 kPa, x1 = 0.0683): 858 ± 4 kg/m3
mass density (317.9 K, 11470 kPa, x1 = 0.0989): 910 ± 4 kg/m3
mass density (317.9 K, 11600 kPa, x1 = 0.0461): 833 ± 4 kg/m3
mass density (317.9 K, 11690 kPa, x1 = 0.0683): 863 ± 4 kg/m3
mass density (317.9 K, 11700 kPa, x1 = 0.1495): 1011 ± 4 kg/m3
mass density (317.9 K, 11870 kPa, x1 = 0.0683): 867 ± 4 kg/m3
mass density (317.9 K, 11890 kPa, x1 = 0.0461): 839 ± 4 kg/m3

Source: the NIST ThermoML archive (doi:10.1021/je900387e)
